In brackets after ≈: the same amount, converted by molar mass.
Tests used:
[1] = tested on: Plasmodium falciparum; assay: Antimalarial activity against Plasmodium falciparum K1; type: functional, organism-based
[2] = tested on: Plasmodium falciparum; assay: Antimalarial activity against Plasmodium falciparum NF54; type: functional, organism-based
[3] = tested on: Mus musculus; assay: Survival of MORO mice (Mus musculus) infected with Plasmodium berghei at 10 mg/kg, perorally after 30 day post-infection; type: functional; settings: route oral
[4] = tested on: Mus musculus; assay: Survival of MORO mice (Mus musculus) infected with Plasmodium berghei at 10 mg/kg, subcutaneously after 30 day post-infection; type: functional; settings: route subcutaneous
[5] = tested on: Plasmodium berghei; assay: Antimalarial activity in Plasmodium berghei infected MORO mice (Mus musculus) at 10 mg/kg peroral dose; type: functional; settings: route oral
[6] = tested on: Plasmodium berghei; assay: Antimalarial activity in Plasmodium berghei infected MORO mice (Mus musculus) at 10 mg/kg subcutaneous dose; type: functional
[7] = Lipophilicity, LogD at pH 7.4; type: physicochemical; settings: buffer
[8] = Partition coefficient, logP of the compound; type: physicochemical; settings: octanol/water

| SMILES | IC50 [1] | IC50 [2] | Activity [3] | Activity [4] | Activity [5] | Activity [6] | logD [7] | logP [8] |
| --- | --- | --- | --- | --- | --- | --- | --- | --- |
| COCC(=O)N1CC[C@]2(CC1)OO[C@]1(O2)C2CC3CC(C2)CC1C3 | 0.95 ng/mL (≈ 2.82 nM) | 0.2 ng/mL (≈ 0.593 nM) | 7.3 days | 7.3 days |  |  |  |  |
| C1CC2(CCN1)OOC1(O2)C2CC3CC(C2)CC1C3.Cl (centres undefined) | 0.15 ng/mL | 0.34 ng/mL | 6.3 days | 7.7 days | 59% | 84% | 0.25 |  |
| O=S(=O)(c1ccccc1)N1CCC2(CC1)OOC1(O2)C2CC3CC(C2)CC1C3 (centres undefined) | 1.1 ng/mL (≈ 2.71 nM) | 1.2 ng/mL (≈ 2.96 nM) | 6 days | 10.3 days | 71% | >99.99% |  | 5.5 |
| C1CCC2(CC1)OOC1(O2)C2CC3CC(C2)CC1C3 (centres undefined) | 0.97 ng/mL (≈ 3.67 nM) | 1.4 ng/mL (≈ 5.3 nM) | 7.2 days | 11.9 days | 94% | >99.99% |  | 6.1 |
| O=C(CO)N1CCC2(CC1)OOC1(O2)C2CC3CC(C2)CC1C3 (centres undefined) | 0.3 ng/mL (≈ 0.928 nM) | 0.6 ng/mL (≈ 1.86 nM) | 7 days | 8 days | 92% | 99.8% |  | 2.4 |
| O=C(N1CCOCC1)N1CCC2(CC1)OOC1(O2)C2CC3CC(C2)CC1C3 (centres undefined) |  |  | 8.7 days | 9 days |  |  |  |  |
| O=C(O)CCC(=O)N1CCC2(CC1)OOC1(O2)C2CC3CC(C2)CC1C3 (centres undefined) | 7.1 ng/mL (≈ 19.4 nM) | 7.2 ng/mL (≈ 19.7 nM) | 6 days | 6.3 days | 39% | 52% |  | 2.3 |
| O=C(O)c1ccccc1C(=O)N1CCC2(CC1)OOC1(O2)C2CC3CC(C2)CC1C3 (centres undefined) | 22 ng/mL (≈ 53.2 nM) | 13 ng/mL (≈ 31.4 nM) | 6.3 days | 6.3 days |  |  | 1.2 |  |
| NC(=O)N1CCC2(CC1)OOC1(O2)C2CC3CC(C2)CC1C3 (centres undefined) |  |  | 8.3 days | 8.7 days |  |  |  |  |
| CC(C)(C)NC(=O)N1CCC2(CC1)OOC1(O2)C2CC3CC(C2)CC1C3 (centres undefined) | 0.98 ng/mL (≈ 2.69 nM) | 1.8 ng/mL (≈ 4.94 nM) | 6.7 days | 9.7 days |  |  |  |  |
| CCS(=O)(=O)CCN1CCC2(CC1)OOC1(O2)C2CC3CC(C2)CC1C3 (centres undefined) | 1 ng/mL (≈ 2.59 nM) | 2.9 ng/mL (≈ 7.52 nM) | 7 days | 8 days |  |  | 2.3 |  |
| Cc1ccc(NC(=O)N2CCC3(CC2)OOC2(O3)C3CC4CC(C3)CC2C4)cc1 (centres undefined) | 2.3 ng/mL (≈ 5.77 nM) | 2.3 ng/mL (≈ 5.77 nM) | 6 days | 14.3 days |  |  |  |  |
| CN1CCN(C(=O)N2CCC3(CC2)OOC2(O3)C3CC4CC(C3)CC2C4)CC1 (centres undefined) | 0.2 ng/mL (≈ 0.511 nM) | 0.22 ng/mL (≈ 0.562 nM) | 7.3 days | 8.3 days |  |  | 2.6 |  |
| CCS(=O)(=O)N1CCC2(CC1)OOC1(O2)C2CC3CC(C2)CC1C3 (centres undefined) | 0.38 ng/mL (≈ 1.06 nM) | 0.81 ng/mL (≈ 2.27 nM) | 7 days | 9.3 days | 85% | 99.94% |  |  |
| O=S(=O)(Cc1ccccc1)N1CCC2(CC1)OOC1(O2)C2CC3CC(C2)CC1C3 (centres undefined) | 1.7 ng/mL (≈ 4.05 nM) | 4.1 ng/mL (≈ 9.77 nM) | 5.7 days | 8 days |  |  |  |  |
| c1ccc(CN2CCC3(CC2)OOC2(O3)C3CC4CC(C3)CC2C4)cc1 (centres undefined) | 2.5 ng/mL (≈ 7.03 nM) | 2.6 ng/mL (≈ 7.31 nM) | 6 days | 10 days |  |  | 3.5 |  |
| CN(C)C(=O)N1CCC2(CC1)OOC1(O2)C2CC3CC(C2)CC1C3 (centres undefined) | 0.7 ng/mL (≈ 2.08 nM) |  | 7 days | 7 days |  |  |  |  |
| O=C(Nc1ccc(Cl)cc1)N1CCC2(CC1)OOC1(O2)C2CC3CC(C2)CC1C3 (centres undefined) |  |  | 6 days | 13.7 days |  |  |  |  |
| CO[C@H]1O[C@@H]2O[C@@]3(C)CC[C@H]4[C@H](C)CC[C@@H]([C@H]1C)[C@@]24OO3 | 0.74 ng/mL (≈ 2.48 nM) | 1.2 ng/mL (≈ 4.02 nM) | 7.9 days | 9.1 days | 98% | 99.78% |  | 3.3 |
| CC(=O)Nc1ccc(S(=O)(=O)N2CCC3(CC2)OOC2(O3)C3CC4CC(C3)CC2C4)cc1 (centres undefined) | 1.4 ng/mL (≈ 3.03 nM) | 0.5 ng/mL (≈ 1.08 nM) | 6.3 days | 12 days |  |  |  |  |
| CC(=O)N1CCC2(CC1)OOC1(O2)C2CC3CC(C2)CC1C3 (centres undefined) | 0.82 ng/mL (≈ 2.67 nM) | 0.93 ng/mL (≈ 3.03 nM) | 6.7 days | 7.3 days | 81% | 85% |  | 3.8 |
| CC(C)(C)CC(=O)N1CCC2(CC1)OOC1(O2)C2CC3CC(C2)CC1C3 (centres undefined) |  |  | 7.7 days | 8.3 days |  |  |  |  |
| c1cc(CN2CCC3(CC2)OOC2(O3)C3CC4CC(C3)CC2C4)ccn1 (centres undefined) | 0.4 ng/mL (≈ 1.12 nM) | 0.67 ng/mL (≈ 1.88 nM) | 6.3 days | 11 days |  |  | 2.7 |  |
| O=C(Nc1ccccc1)N1CCC2(CC1)OOC1(O2)C2CC3CC(C2)CC1C3 (centres undefined) |  |  | 7 days | 19.7 days |  |  |  |  |
| O=C(c1ccncc1)N1CCC2(CC1)OOC1(O2)C2CC3CC(C2)CC1C3 (centres undefined) |  |  | 6.7 days | 7 days |  |  |  |  |
| CC(C)N(C(=O)N1CCC2(CC1)OOC1(O2)C2CC3CC(C2)CC1C3)C(C)C (centres undefined) |  | 6.6 ng/mL (≈ 16.8 nM) | 8.3 days | 20.3 days |  |  |  |  |
| CS(=O)(=O)N1CCC2(CC1)OOC1(O2)C2CC3CC(C2)CC1C3 (centres undefined) | 0.59 ng/mL (≈ 1.72 nM) | 0.64 ng/mL (≈ 1.86 nM) | 6.7 days | 10.3 days | 93% | 99.97% |  |  |
| O=C(c1ccccc1)N1CCC2(CC1)OOC1(O2)C2CC3CC(C2)CC1C3 (centres undefined) | 0.35 ng/mL (≈ 0.947 nM) | 0.58 ng/mL (≈ 1.57 nM) | 7 days | 8.7 days | 93% | 99.9% |  | 5.6 |
| O=C(N1CCCC1)N1CCC2(CC1)OOC1(O2)C2CC3CC(C2)CC1C3 (centres undefined) | 3.9 ng/mL (≈ 10.8 nM) | 6.7 ng/mL (≈ 18.5 nM) | 7.3 days | 9.7 days |  |  |  |  |
| C[C@H]1[C@H](OC(=O)CCC(=O)O)O[C@@H]2O[C@@]3(C)CC[C@H]4[C@H](C)CC[C@@H]1[C@@]24OO3 [ARTESUNATE] |  |  | 6.8 days | 6.8 days | 65% | 65% |  |  |

— ChEMBL document CHEMBL1139685, “Antimalarial activity of N-alkyl amine, carboxamide, sulfonamide, and urea derivatives of a dispiro-1,2,4-trioxolane piperidine” (Bioorg Med Chem Lett, 2006)
